The test system of this assay is L1210 leukemia ip in BDF1 mice, survival T/C. In words: NCI In Vivo Anticancer Drug Screen. Data for tumor model L1210 Leukemia (intraperitoneal) in B6D2F1 (BDF1) mice. Conditions: endpoint: mean survival time, higher = longer survival. An outline of the steps:
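Tumor was transplanted into mice, which were then dosed with test compound or vehicle alone. Survival was recorded for each group, and the treated figure was expressed relative to the control figure.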

Where [1] appears, read: dose: 100.0 mg/kg/injection, schedule: Q04DX003 (ip), vehicle: saline with Tween-80.
[2] abbreviates: dose: 200.0 mg/kg/injection, schedule: Q04DX003 (ip), vehicle: saline with Tween-80.
The mark [3] stands for this setting: dose: 400.0 mg/kg/injection, schedule: Q04DX003 (ip), vehicle: saline with Tween-80.
[4] abbreviates: dose: 100.0 mg/kg/injection, schedule: Q04DX003 (ip), vehicle: Klucel (hydroxypropylcellulose) (HPC).
The mark [5] stands for this setting: dose: 200.0 mg/kg/injection, schedule: Q04DX003 (ip), vehicle: Klucel (hydroxypropylcellulose) (HPC).
Setting [6] is: dose: 400.0 mg/kg/injection, schedule: Q04DX003 (ip), vehicle: Klucel (hydroxypropylcellulose) (HPC).
Where [7] appears, read: dose: 50.0 mg/kg/injection, schedule: Q04DX003 (ip), vehicle: saline.
The mark [8] stands for this setting: dose: 100.0 mg/kg/injection, schedule: Q04DX003 (ip), vehicle: saline.
[9] abbreviates: dose: 200.0 mg/kg/injection, schedule: Q04DX003 (ip), vehicle: saline.

Where “and” joins values, the source holds several entries; their conditions need not be identical. Identical values can stand only once. Toxic doses and inconclusive results are not listed.

For `Nc1nncs1`, the T/C reads like this: (dose: 3.75 mg/kg/injection, schedule: Q01DX015 (ip), vehicle: saline) 103 % of control; (dose: 7.0 mg/kg/injection, schedule: Q03HX032 (ip), vehicle: saline) 107 % of control; (dose: 7.5 mg/kg/injection, schedule: Q01DX015 (ip), vehicle: saline) 106 % of control; (dose: 7.5 mg/kg/injection, schedule: Q01DX Z (ip), vehicle: carboxymethylcellulose (CMC)) 96 % of control; (dose: 11.0 mg/kg/injection, schedule: Q03HX032 (ip), vehicle: saline) 119 % of control; (dose: 12.5 mg/kg/injection, schedule: Q01DX009 (ip), vehicle: saline) 120 % of control. Besides, the T/C was 109 % of control (dose: 15.0 mg/kg/injection, schedule: Q01DX015 (ip), vehicle: saline); 114 % of control (dose: 15.0 mg/kg/injection, schedule: Q01DX Z (ip), vehicle: carboxymethylcellulose (CMC)); 108 % of control (dose: 16.0 mg/kg/injection, schedule: Q03HX032 (ip), vehicle: saline); 116 % of control (dose: 20.0 mg/kg/injection, schedule: Q01DX Z (ip), vehicle: carboxymethylcellulose (CMC)); 124 % of control (dose: 24.0 mg/kg/injection, schedule: Q03HX032 (ip), vehicle: saline); 106 % of control (dose: 25.0 mg/kg/injection, schedule: Q01DX009 (ip), vehicle: saline). Also, the T/C (dose: 25.0 mg/kg/injection, schedule: Q01DX Z (ip), vehicle: carboxymethylcellulose (CMC)) was 112 % of control; the T/C (dose: 27.0 mg/kg/injection, schedule: Q01DX015 (ip), vehicle: saline) is 123 % of control; the T/C (dose: 32.0 mg/kg/injection, schedule: Q01DX009 (ip), vehicle: Klucel (hydroxypropylcellulose) (HPC)) was 151 % of control; the T/C (dose: 36.0 mg/kg/injection, schedule: Q03HX032 (ip), vehicle: saline) was 156 % of control; the T/C (dose: 50.0 mg/kg/injection, schedule: Q01DX009 (ip), vehicle: saline) is 95 % of control; the T/C (dose: 60.0 mg/kg/injection, schedule: Q01DX015 (ip), vehicle: saline) was 151 % of control and 165 % of control and 166 % of control. Moreover, the T/C (dose: 64.0 mg/kg/injection, schedule: Q01DX009 (ip), vehicle: Klucel (hydroxypropylcellulose) (HPC)) was 94 % of control and 112 % of control; the T/C (dose: 90.0 mg/kg/injection, schedule: Q01DX015 (ip), vehicle: saline) was 168 % of control; the T/C (dose: 120.0 mg/kg/injection, schedule: Q01DX015 (ip), vehicle: saline) was 171 % of control; the T/C (dose: 128.0 mg/kg/injection, schedule: Q01DX009 (ip), vehicle: Klucel (hydroxypropylcellulose) (HPC)) is 88 % of control and 90 % of control; the T/C (dose: 135.0 mg/kg/injection, schedule: Q01DX015 (ip), vehicle: saline) is 151 % of control; the T/C (dose: 240.0 mg/kg/injection, schedule: Q01DX015 (ip), vehicle: saline) was 116 % of control. Further, the T/C was 120 % of control (dose: 270.0 mg/kg/injection, schedule: Q01DX001 (ip), vehicle: saline); 107 % of control (dose: 480.0 mg/kg/injection, schedule: Q01DX015 (ip), vehicle: saline); 100 % of control (dose: 500.0 mg/kg/injection, schedule: Q04DX003 (ip), vehicle: saline); 124 % of control (dose: 600.0 mg/kg/injection, schedule: Q01DX001 (ip), vehicle: saline); 163 % of control (dose: 1000.0 mg/kg/injection, schedule: Q04DX003 (ip), vehicle: saline).
For `CCCCCCCCCCCCCCCCCCOC(C)OCCCCCCCCCCCCCCCCCC`, the T/C was 89 % of control under setting [1], 89 % of control under setting [2] and 87 % of control under setting [3].
On to `C/C(=N/OC(=O)N(C)C)c1ccccc1`, for which the T/C was 104 % of control (dose: 100.0 mg/kg/injection, schedule: Q01DX001 (ip), vehicle: carboxymethylcellulose (CMC)); 101 % of control (dose: 200.0 mg/kg/injection, schedule: Q01DX001 (ip), vehicle: carboxymethylcellulose (CMC)); 90 % of control (dose: 400.0 mg/kg/injection, schedule: Q01DX001 (ip), vehicle: carboxymethylcellulose (CMC)).
Regarding `CCCCCc1cc(O)c(C2CC(C)CCC2C(C)C)c(OC(=O)c2ccc([N+](=O)[O-])cc2[N+](=O)[O-])c1` (centres undefined), the T/C under setting [4] is 104 % of control, the T/C under setting [5] is 88 % of control and the T/C under setting [6] was 88 % of control.
Take `C#CCOc1ccccc1O`: the T/C reads like this: (dose: 100.0 mg/kg/injection, schedule: Q01DX009 (ip), vehicle: acetone) 94 % of control and 91 % of control; (dose: 200.0 mg/kg/injection, schedule: Q01DX009 (ip), vehicle: acetone) 94 % of control; (dose: 400.0 mg/kg/injection, schedule: Q01DX009 (ip), vehicle: acetone) 100 % of control and 92 % of control.
In the case of `Cc1cc(O)[nH]c(=O)c1`, the T/C is, setting by setting: (dose: 5.0 mg/kg/injection, schedule: Q01DX001 (ip), vehicle: saline) 105 % of control; (dose: 10.0 mg/kg/injection, schedule: Q01DX001 (ip), vehicle: saline) 105 % of control; (dose: 20.0 mg/kg/injection, schedule: Q01DX001 (ip), vehicle: saline) 100 % of control; (dose: 40.0 mg/kg/injection, schedule: Q01DX001 (ip), vehicle: saline) 105 % of control; (dose: 80.0 mg/kg/injection, schedule: Q01DX001 (ip), vehicle: saline) 100 % of control.
`CCOC(=O)c1cnc(C)nc1Nc1ccccc1Cl`: the T/C is 105 % of control under setting [7]; 104 % of control under setting [8]; 98 % of control and 108 % of control under setting [9].
For the molecule `COC(=O)Nc1ccc2nc(NC(=O)OC)[nH]c2c1`, the T/C by setting is: (dose: 20.0 mg/kg/injection, schedule: Q01DX009 (ip), vehicle: other) 97 % of control; (dose: 40.0 mg/kg/injection, schedule: Q01DX009 (ip), vehicle: other) 101 % of control; (dose: 80.0 mg/kg/injection, schedule: Q01DX009 (ip), vehicle: other) 104 % of control.
`COc1ccc(Nc2nc(N)nc(CNc3ccc(C)cc3)n2)cc1`: the T/C was 94 % of control under setting [1], 92 % of control under setting [2] and 96 % of control under setting [3].
For `CCOC(=O)C(C1=NC(C)(C)CC(C)O1)C(C[N+](=O)[O-])c1ccccc1` (centres undefined), the T/C runs as follows: (dose: 100.0 mg/kg/injection, schedule: Q01DX001 (ip), vehicle: other) 97 % of control; (dose: 200.0 mg/kg/injection, schedule: Q01DX001 (ip), vehicle: other) 97 % of control; (dose: 400.0 mg/kg/injection, schedule: Q01DX001 (ip), vehicle: other) 100 % of control.
As to `COc1ccc(C(=O)/C=C/c2cccc(OCc3ccccc3)c2)cc1`, the T/C (dose: 25.0 mg/kg/injection, schedule: Q04DX002 (ip), vehicle: Klucel (hydroxypropylcellulose) (HPC)) is 102 % of control; the T/C (dose: 50.0 mg/kg/injection, schedule: Q04DX002 (ip), vehicle: Klucel (hydroxypropylcellulose) (HPC)) is 91 % of control; the T/C (dose: 100.0 mg/kg/injection, schedule: Q04DX002 (ip), vehicle: Klucel (hydroxypropylcellulose) (HPC)) is 102 % of control; the T/C (dose: 200.0 mg/kg/injection, schedule: Q04DX002 (ip), vehicle: Klucel (hydroxypropylcellulose) (HPC)) is 92 % of control; the T/C (dose: 400.0 mg/kg/injection, schedule: Q04DX002 (ip), vehicle: Klucel (hydroxypropylcellulose) (HPC)) is 103 % of control.
`CCOC(OCC)n1ncnc1NC(=S)NCc1ccccc1`: the T/C under setting [7] was 100 % of control, the T/C under setting [8] was 100 % of control and the T/C under setting [9] was 97 % of control.
With `O=C(Nc1cccc2ccccc12)OCCF`, the T/C (dose: 5.0 mg/kg/injection, schedule: Q01DX001 (ip), vehicle: carboxymethylcellulose (CMC)) is 101 % of control; the T/C (dose: 10.0 mg/kg/injection, schedule: Q01DX001 (ip), vehicle: carboxymethylcellulose (CMC)) was 106 % of control; the T/C (dose: 20.0 mg/kg/injection, schedule: Q01DX001 (ip), vehicle: carboxymethylcellulose (CMC)) was 104 % of control; the T/C (dose: 40.0 mg/kg/injection, schedule: Q01DX001 (ip), vehicle: carboxymethylcellulose (CMC)) was 104 % of control; the T/C (dose: 80.0 mg/kg/injection, schedule: Q01DX001 (ip), vehicle: carboxymethylcellulose (CMC)) is 106 % of control.
With `Nc1ccc(S(N)(=O)=O)cc1`, the T/C under setting [4] was 114 % of control, the T/C under setting [5] was 95 % of control and the T/C under setting [6] was 92 % of control.
